Among the data in ChEMBL document CHEMBL1909046, “DrugMatrix in vitro pharmacology data” are IC50 and Ki values, retold here.

The target in test [1] is Aldo-keto reductase family 1 member B1 (Rattus norvegicus, UniProt P07943). Put plainly: biochemical. Format: tissue-based, Lens of camera-type eye.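 Also: inhibition of aldose reductase enzyme activity, measured with DL-glyceraldehyde as the substrate; in other assays of this panel Not Active means under 50% inhibition at 10 µM.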
Test [2] in a line: DRUGMATRIX: Calcium Channel Type L, Benzothiazepine radioligand binding (ligand: [3H] Diltiazem). Format: cell membranes, Rattus norvegicus, Wistar, Brain, Membrane. The note with it: Not Active = under 50% inhibition at 10 µM.
The next test concerns the target T1, Thromboxane-A synthase (Homo sapiens, UniProt P24557).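 Also: enzyme inhibition assay with PGH2 supplied as substrate; in other assays of this panel Not Active means under 50% inhibition at 10 µM.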
T1 sequence (P24557 whole entry): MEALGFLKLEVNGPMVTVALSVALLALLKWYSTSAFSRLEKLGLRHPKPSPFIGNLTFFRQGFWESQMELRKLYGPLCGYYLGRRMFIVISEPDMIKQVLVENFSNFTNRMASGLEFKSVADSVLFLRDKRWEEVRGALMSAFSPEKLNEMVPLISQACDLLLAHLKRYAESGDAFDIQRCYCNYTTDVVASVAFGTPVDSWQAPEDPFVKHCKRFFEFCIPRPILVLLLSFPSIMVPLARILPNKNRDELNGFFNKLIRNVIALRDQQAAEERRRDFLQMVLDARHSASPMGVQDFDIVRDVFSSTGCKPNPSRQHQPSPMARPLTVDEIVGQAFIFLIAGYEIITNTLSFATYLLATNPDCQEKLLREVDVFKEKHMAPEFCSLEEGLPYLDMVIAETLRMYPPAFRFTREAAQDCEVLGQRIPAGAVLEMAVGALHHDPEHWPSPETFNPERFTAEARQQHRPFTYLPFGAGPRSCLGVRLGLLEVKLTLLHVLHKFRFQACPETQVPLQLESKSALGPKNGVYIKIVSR
Briefly: biochemical. Format: tissue-based, Platelet.

For another test, the target named is T2, D(4) dopamine receptor (Homo sapiens, UniProt P21917).
T2 sequence (P21917 whole entry): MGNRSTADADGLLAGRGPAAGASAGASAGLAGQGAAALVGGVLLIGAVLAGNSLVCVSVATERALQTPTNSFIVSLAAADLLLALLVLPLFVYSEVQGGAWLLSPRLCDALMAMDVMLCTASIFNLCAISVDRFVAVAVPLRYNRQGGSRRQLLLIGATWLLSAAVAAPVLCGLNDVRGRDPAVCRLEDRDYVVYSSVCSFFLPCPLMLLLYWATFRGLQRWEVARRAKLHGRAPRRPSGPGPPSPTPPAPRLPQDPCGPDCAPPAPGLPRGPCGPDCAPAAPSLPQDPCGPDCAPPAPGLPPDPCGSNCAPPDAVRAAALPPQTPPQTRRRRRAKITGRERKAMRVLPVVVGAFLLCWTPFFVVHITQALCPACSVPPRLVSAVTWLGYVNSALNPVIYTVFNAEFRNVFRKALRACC
Put plainly: DRUGMATRIX: Dopamine D4.2 radioligand binding (ligand: [3H] Spiperone). Format: cell membranes, CHO-K1, Membrane. The note with it: cho-k1; Not Active = under 50% inhibition at 10 µM.

Test [3] deals with T3, Amine oxidase [flavin-containing] A (Homo sapiens, UniProt P21397).
T3 sequence (P21397 whole entry): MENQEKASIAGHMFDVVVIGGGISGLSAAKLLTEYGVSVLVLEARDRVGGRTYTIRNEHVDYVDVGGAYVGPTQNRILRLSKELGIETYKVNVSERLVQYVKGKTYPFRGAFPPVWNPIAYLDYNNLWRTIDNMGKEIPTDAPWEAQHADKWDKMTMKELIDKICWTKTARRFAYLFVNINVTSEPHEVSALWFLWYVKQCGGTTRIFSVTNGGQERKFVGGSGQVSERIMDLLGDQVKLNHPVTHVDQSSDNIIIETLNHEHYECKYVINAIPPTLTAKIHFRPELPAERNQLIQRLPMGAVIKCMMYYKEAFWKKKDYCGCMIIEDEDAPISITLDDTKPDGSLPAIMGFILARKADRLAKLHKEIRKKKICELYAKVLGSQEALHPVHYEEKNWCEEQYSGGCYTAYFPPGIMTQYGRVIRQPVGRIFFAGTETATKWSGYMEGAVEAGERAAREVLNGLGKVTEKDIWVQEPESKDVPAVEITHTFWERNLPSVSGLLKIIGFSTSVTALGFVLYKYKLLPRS
Put plainly: DRUGMATRIX: Monoamine Oxidase MAO-A enzyme inhibition (substrate: Kynuramine). Further details: species or system BTI-TN-5B1-4. The following applies: bti-tn-5b1-4; Not Active = under 50% inhibition at 10 µM.

In test [4] the target is Mitogen-activated protein kinase 1 (Homo sapiens, UniProt P28482). Put plainly: DRUGMATRIX: Protein Serine/Threonine Kinase, ERK2 enzyme inhibition (substrate: Myelin Basic Protein). Further details: species or system Escherichia coli. The following applies: Not Active = under 50% inhibition at 10 µM.
Chain of Mitogen-activated protein kinase 1 (P28482 whole entry): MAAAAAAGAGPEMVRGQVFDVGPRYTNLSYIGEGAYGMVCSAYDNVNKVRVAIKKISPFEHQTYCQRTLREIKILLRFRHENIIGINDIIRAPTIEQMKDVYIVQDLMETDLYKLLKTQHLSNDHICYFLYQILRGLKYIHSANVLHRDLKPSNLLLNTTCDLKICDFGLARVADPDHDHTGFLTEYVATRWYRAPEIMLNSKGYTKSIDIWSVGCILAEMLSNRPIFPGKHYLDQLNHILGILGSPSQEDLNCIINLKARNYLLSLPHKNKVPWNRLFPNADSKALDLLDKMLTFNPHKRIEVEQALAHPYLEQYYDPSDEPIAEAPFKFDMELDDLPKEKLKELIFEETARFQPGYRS

In the case of LEAD(IV) ACETATE, the concentration for half-maximal inhibition (IC50) result (in test [1]; in test [2]; on Thromboxane-A synthase (platelet); on D(4) dopamine receptor; in test [3]; in test [4]) was “Not Active” throughout. Also, the Ki entry (in test [1]; in test [2]; on Thromboxane-A synthase (platelet); at D(4) dopamine receptor; in test [3]; in test [4]) was “Not Active” throughout.

`CCN1CCCC1CNC(=O)c1cc(S(N)(=O)=O)ccc1OC` (stereo not given) [SULPIRIDE]: the IC50 entry (in test [1]; in test [2]; against Thromboxane-A synthase (platelet); on D(4) dopamine receptor; in test [3]; in test [4]) was “Not Active” throughout. Also, the Ki result in test [2] is on record as “Not Active”.

In the case of `CC[C@H](C)C(=O)O[C@H]1CCC=C2C=C[C@H](C)[C@H](CC[C@@H]3C[C@@H](O)CC(=O)O3)[C@H]21` [MEVASTATIN], the IC50 result (in test [1]; in test [2]; at Thromboxane-A synthase (platelet); on D(4) dopamine receptor; in test [3]; in test [4]) was “Not Active” throughout. The inhibition constant Ki entry in test [2] was “Not Active”.

On to `CN1C[C@H](CNC(=O)OCc2ccccc2)C[C@@H]2c3cccc4c3c(cn4C)C[C@H]21` [METERGOLINE], for which the IC50 result is “Not Active” in test [1]; 268 nM in test [2] (read-out: IC50); “Not Active” against Thromboxane-A synthase (platelet); “Not Active” on D(4) dopamine receptor; “Not Active” in test [3]; “Not Active” in test [4]. Also, the Ki in test [2] (read-out: Ki) was determined as 238 nM.

For `CC1=C(/C=C/C(C)=C/C=C/C(C)=C/C(=O)O)C(C)(C)CCC1` [TRETINOIN], the IC50 result was “Not Active” in test [1]; “Not Active” in test [2]; “Not Active” against Thromboxane-A synthase (platelet); “Not Active” on D(4) dopamine receptor; “Not Active” in test [3]; 576 nM in test [4] (read-out: IC50). Besides, the Ki entry in test [2] was “Not Active”.

On to `CC[C@@]1(O)C(=O)OCc2c1cc1n(c2=O)Cc2cc3c(CN(C)C)c(O)ccc3nc2-1` [TOPOTECAN], for which the half-inhibitory concentration (IC50) result (in test [1]; in test [2]; on Thromboxane-A synthase (platelet); at D(4) dopamine receptor; in test [3]; in test [4]) was “Not Active” throughout. Also, the Ki result in test [2] is on record as “Not Active”.

Turning to `O=C(OC[C@H]1O[C@@H](OC(=O)c2cc(O)c(O)c(OC(=O)c3cc(O)c(O)c(O)c3)c2)[C@H](OC(=O)c2cc(O)c(O)c(OC(=O)c3cc(O)c(O)c(O)c3)c2)[C@@H](OC(=O)c2cc(O)c(O)c(OC(=O)c3cc(O)c(O)c(O)c3)c2)[C@@H]1OC(=O)c1cc(O)c(O)c(OC(=O)c2cc(O)c(O)c(O)c2)c1)c1cc(O)c(O)c(OC(=O)c2cc(O)c(O)c(O)c2)c1` [TANNIC ACID], the IC50 was 346 nM in test [1] (read-out: IC50); “Not Active” in test [2]; 325 nM at Thromboxane-A synthase (read-out: IC50); “Not Active” on D(4) dopamine receptor; “Not Active” in test [3]; 185 nM in test [4] (read-out: IC50). In addition, the inhibition constant (Ki) entry in test [2] was “Not Active”.

Consider `CC(Cl)(Cl)Cl` [TRICHLOROETHANE], for which the IC50 entry (in test [1]; in test [2]; at Thromboxane-A synthase (platelet); at D(4) dopamine receptor; in test [3]; in test [4]) was “Not Active” in each case. For the same compound, the Ki result in test [2] is recorded as “Not Active”.

In the case of `C=CCc1ccc2c(c1)OCO2` [SAFROLE], the IC50 entry (in test [1]; in test [2]; against Thromboxane-A synthase (platelet); on D(4) dopamine receptor; in test [3]; in test [4]) was “Not Active” each time. The Ki entry in test [2] is on record as “Not Active”.

Consider `O=C1CC[C@@]2(O)[C@H]3Cc4ccc(O)c5c4[C@@]2(CCN3CC2CC2)[C@H]1O5` [NALTREXONE], for which the IC50 result (in test [1]; in test [2]; against Thromboxane-A synthase (platelet); on D(4) dopamine receptor; in test [3]; in test [4]) was “Not Active” in each case. Further, the Ki result in test [2] was “Not Active”.
